Measurements reported in US7504538B2, “Amide or thioamide derivatives and their use in the treatment of pain” (Cara Therapeutics, Inc., priority 2003, dated 2009).

What was measured:
hCB2-R = target: T1, hCB2-R (Homo sapiens, UniProt P34972); experiment: CB2 ligand binding assay ([3H]-CP55940 displacement, CHO-K1 membranes); conditions: 0.3-0.5 nM [3H]-CP55940, CB2 membranes, 2 h at 30° C.; read-out: Binding constants (Ki) to hCB2-R
T1 construct: expressed in transfected cells; membranes
Excerpt: (§1) The biological assays used were essentially set up as described in Munro, S., Thomas, K. L., Abu-Shaar, M. in “Molecular characterisation of a peripheral receptor for cannabinoids” Nature 365:61-65 (1993) and Kim, S. H. and Chung, J. M. in “An experimental model for peripheral neuropathy produced by segmental spinal nerve ligation in the rat” Pain 50:355-363 (1992).
Monoclonal HEK cell lines with stable expression of the human CB1 receptor and CHO-K1 cell lines with stable expression of hCB2-R were established. The CB binding assays were performed with membranes prepared from these cell lines. The CB2 ligand binding mixture contains 0.3-0.5 nM [^3H]-CP55940, 7 μg of CB2 membranes and the test compounds in a concentration range of from 1.0×10^−4 to 1.0×10^−12 M. The assay buffer comprises 50 mM Tris-HCl (pH 7.4), 5 MM MgCl2, 2.5 mM EDTA and 5 mg/ml fatty acid-free bovine serum albumin. The binding mixtures are incubated for 2 h at 30° C. and terminated by rapid filtration (Brandel 96 well cell harvester) over 934AH filters (Whatman) followed by 6 washes with ice-cold binding buffer. The filters are dried and [^3H]-CP55940 bound radioactivity is determined by liquid scintillation counting. Non-specific binding is determined in the presence of 10 μM CP55940. The binding data is analysed with the program GraphPad Prism (provided by GraphPad Software, San Diego, Calif., USA).

rats [1] = experiment: Formalin flinch test (inflammatory pain); assay type: in vivo; conditions: rat; for A50 Formalin Phase II: inflammatory phase (10-60 min); for A50 Formalin Phase I: tonic phase (first 10 min)
Excerpt: as §1
(§2) Inflammatory (Formalin flinch test) and chronic pain (L5/L6 nerve ligation injury) models were used as assays in both rats and mice.
Animals are habituated to the their local environment for about 30 min prior to testing. The formalin test is carried out in a 30×30×30 cm chamber with the front and bottom of the chambers made of clear plexiglass. Mirrors are placed at a 45° angle under the chambers in order to have an un-obstructive view of the paws. Animals are restrained manually and 2% formalin (aq) is injected subcutaneously into the planar surface of the left paw with a 30 gauge needle. The numbers of paw flinches are then recorded in 5 min intervals from the time of injection for a 60 min period. Elevations of the paw, licking and biting of the injected paw were counted as “flinches”. The tonic or “first phase” of the nociceptive response peaked at 5 min after formalin injection and the inflammatory or “second phase” peaked at 30 min after formalin injection. The number of flinches in the first 10 min were representative of the tonic phase and the number of flinches from 10 min until 60 min were representative of the inflammatory phase. Antinociception for both phase I and phase II was calculated as follows: % antinociception=100×(# of flinches in control animal−# of flinches in drug treated animal)/(# of flinches in control animal)
Potency (A50) is calculated from the full dose response curve for both phase I and phase II.

rats [2] = experiment: L5/L6 nerve ligation injury, tactile allodynia (von Frey); assay type: in vivo; conditions: rat
Excerpt: as §1, §2
Nerve ligation injury was performed according to the method described previously (Kim and Chung). This methodology produces signs of tactile allodynia and thermal hyperalgesia. Rats were anesthetized with halothane and the L5 and L6 spinal nerves were exposed, carefully isolated, and tightly ligated with 4-0 silk suture distal to the dorsal root ganglia (DRG). After ensuring homeostatic stability the wounds were sutured, and the animals were allowed to recover in individual cages. Sham-operated rats were prepared in an identical fashion except that the L5 and L6 spinal nerves were not ligated. Compound 17 was tested in rats after L5/L6 nerve ligation. […]
In the evaluation of the tactile allodynia, the paw withdrawal threshold was determined in response to probing with calibrated von Frey filaments. […] The 50% paw withdrawal threshold was determined by the nonparametric method. […]

rats [3] = experiment: L5/L6 nerve ligation injury, thermal hyperalgesia; assay type: in vivo; conditions: rat
Excerpt: as §1, §2
Nerve ligation injury was performed according to the method described previously (Kim and Chung). This methodology produces signs of tactile allodynia and thermal hyperalgesia. Rats were anesthetized with halothane and the L5 and L6 spinal nerves were exposed, carefully isolated, and tightly ligated with 4-0 silk suture distal to the dorsal root ganglia (DRG). After ensuring homeostatic stability the wounds were sutured, and the animals were allowed to recover in individual cages. Sham-operated rats were prepared in an identical fashion except that the L5 and L6 spinal nerves were not ligated. Compound 17 was tested in rats after L5/L6 nerve ligation. Compound administration was directly into the hind paw (i.paw) or into the peritoneal cavity (i.p.).

T1 sequence (P34972 whole entry): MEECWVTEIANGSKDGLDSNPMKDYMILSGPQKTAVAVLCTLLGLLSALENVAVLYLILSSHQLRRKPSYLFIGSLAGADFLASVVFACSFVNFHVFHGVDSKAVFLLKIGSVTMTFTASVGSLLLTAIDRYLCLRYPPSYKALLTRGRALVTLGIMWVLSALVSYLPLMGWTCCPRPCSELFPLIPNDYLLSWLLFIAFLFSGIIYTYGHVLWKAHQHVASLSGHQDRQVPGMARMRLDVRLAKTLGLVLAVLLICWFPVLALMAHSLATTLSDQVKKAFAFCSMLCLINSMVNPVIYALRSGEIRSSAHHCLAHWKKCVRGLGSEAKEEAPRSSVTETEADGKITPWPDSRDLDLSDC

SMILES	Ki (hCB2-R)	also measured
NC(=O)CCCN(CCc1ccccc1)C(=O)Nc1ccccc1 [Compound 13, 4-(1-phenethyl-3-phenylureido)butyramide]	450 nM	–
NC(=O)CCCN(CCc1ccc2ccccc2c1)C(=O)Nc1ccccc1 [Compound 11, 4-[1-(2-naphthalen-2-yl-ethyl)-3-phenylureido]butyr-amide]	770 nM	–
NC(=O)CCCN(CCC1CCCCC1)C(=O)Nc1ccccc1 [Compound 12, 4-[1-(2-cyclohexylethyl)-3-phenylureido]butyramide]	410 nM	–
O=C(CCCN(CCCC1CCCCC1)C(=O)Nc1ccccc1)NCc1ccc(Cl)cc1 [Compound 6, N-(4-chlorobenzyl)-4-[1-(3-cyclohexylpropyl)-3-phenyl-ureido]butyramide]	2200 nM	–
NC(=O)CCCN(CCCCCCc1ccccc1)C(=O)Nc1ccccc1 [Compound 2, 4-[3-phenyl-1-(6-phenylhexyl)ureido]butyramide]	450 nM	–
NC(=O)CCCN(CCCC1CCCCC1)C(=O)Nc1ccccc1 [Compound 17, 4-[1-(3-cyclohexylpropyl)-3-phenylureido]butyramide]	110 nM	A50 Formalin Phase II (rats [1]; i. paw): 28 mg/paw; A50 Formalin Phase I (rats [1]; i. paw): <10 mg/paw; A50 Formalin Phase II (rats [1]; i.p.): 0.01 mg/kg; A50 Formalin Phase I (rats [1]; i.p.): <0.01 mg/kg; antiallodynic effect (rats [2]; L5/L6 nerve ligation, 100 μg (in 50 μl) into the paw): 90%; A50 L5/L6 anti-allodynia (rats [2]; i. paw): <30 mg/paw; antihyperalgesic response to the thermal testing (rats [3]; L5/L6 spinal nerve ligation, 30 μg (in 50 μl) into the paw): 100%; A50 L5/L6 anti-hyperalgesia (rats [3]; i. paw): <30 mg/paw
NC(=O)CCCN(Cc1ccccc1)C(=O)Nc1ccccc1 [Compound 14, 4-(1-benzyl-3-phenylureido)butyramide]	840 nM	–
C[C@@H](C(=O)N(CCCC(N)=O)CCCC1CCCCC1)c1ccccc1 [Compound 1, (R)-4-[(3-cyclohexylpropyl)-(2-phenylpropionyl)amino]-butyramide]	2900 nM	–
CC(C)c1ccc(CN(CCCC(N)=O)C(=O)Nc2ccccc2)cc1 [Compound 4, 4-[1-(4-isopropylbenzyl)-3-phenylureido]butyramide]	780 nM	–
CC(C)CCCN(CCCC(N)=O)C(=O)Nc1ccccc1 [Compound 5, 4-[1-(4-methylpentyl)-3-phenylureido]butyramide]	1100 nM	–
NC(=O)CCCN(CCCC1CCCCC1)C(=O)Nc1ccc2ccccc2c1 [Compound 10, 4-[1-(3-cyclohexylpropyl)-3-naphthalen-2-yl-ureido]-butyramide]	1000 nM	–
NC(=O)[C@@H]1CCCC[C@H]1N(CCCC1CCCCC1)C(=O)Nc1ccccc1 (relative stereo) [Compound 7, trans-2-[1-(3-cyclohexylpropyl)-3-phenylureido]cyclo-hexanecarboxamide]	1500 nM	–
CCCCc1ccc(CN(CCCC(N)=O)C(=O)Nc2ccccc2)cc1 [Compound 3, 4-[1-(4-butylbenzyl)-3-phenylureido]butyramide]	120 nM	–
NC(=O)CCCN(CCCC1CCCCC1)C(=O)Cc1ccc2ccccc2c1 [Compound 8, 4-[(3-cyclohexylpropyl)-(2-naphthalen-2-yl-acetyl)amino]-butyramide]	2700 nM	–
NC(=O)CCCN(CCCC1CCCC1)C(=O)Nc1ccccc1 [Compound 15, 4-[1-(3-cyclopentylpropyl)-3-phenylureido]butyr-amide]	210 nM	–
Cc1c(C(=O)c2cccc3ccccc23)c2cccc3c2n1[C@H](CN1CCOCC1)CO3 [WIN-55, 212-2, reference compound]	–	A50 Formalin Phase II (rats [1]; i. paw): 25 mg/paw; A50 Formalin Phase I (rats [1]; i. paw): 12 mg/paw
NC(=O)CCCCCCCN(CCCC1CCCCC1)C(=O)Cc1ccc2ccccc2c1 [Compound 9, 8-[(3-cyclohexylpropyl)-(2-naphthalen-2-yl-acetyl)amino]-octanamide]	15000 nM	–
NC(=O)CCCN(CCCCCc1ccccc1)C(=O)Nc1ccccc1 [Compound 16, 4-[3-phenyl-1-(5-phenylpentyl)ureido]butyramide]	130 nM	–
